ChEMBL document CHEMBL3987221, “The Australian National University Dept Of Immunology Pathogen Box Compounds Screened” (2018)
The source made the active and inactive calls. How the calls were made is not given here.

Columns and labels:
[1] = biological target: T1, Ferrochelatase, mitochondrial (Homo sapiens) (UniProt P22830); settings: at 10 µM
T1 sequence (whole entry): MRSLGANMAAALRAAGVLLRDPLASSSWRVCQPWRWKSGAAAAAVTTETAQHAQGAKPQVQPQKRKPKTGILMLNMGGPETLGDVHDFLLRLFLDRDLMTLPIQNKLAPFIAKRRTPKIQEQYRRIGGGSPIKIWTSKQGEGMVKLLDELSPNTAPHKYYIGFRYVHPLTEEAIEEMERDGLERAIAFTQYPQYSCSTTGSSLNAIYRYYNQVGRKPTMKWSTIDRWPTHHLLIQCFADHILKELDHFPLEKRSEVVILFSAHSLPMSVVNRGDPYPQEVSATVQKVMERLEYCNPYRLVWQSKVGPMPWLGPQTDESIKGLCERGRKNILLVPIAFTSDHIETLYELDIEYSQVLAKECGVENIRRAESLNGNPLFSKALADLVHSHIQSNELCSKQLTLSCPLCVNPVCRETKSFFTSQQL
Description: Compound was evaluated for the inhibition of human FECH at 10uM

[2] = biological target: T2, Porphobilinogen deaminase (Homo sapiens) (UniProt P08397); settings: at 100 µM
T2 sequence (whole entry): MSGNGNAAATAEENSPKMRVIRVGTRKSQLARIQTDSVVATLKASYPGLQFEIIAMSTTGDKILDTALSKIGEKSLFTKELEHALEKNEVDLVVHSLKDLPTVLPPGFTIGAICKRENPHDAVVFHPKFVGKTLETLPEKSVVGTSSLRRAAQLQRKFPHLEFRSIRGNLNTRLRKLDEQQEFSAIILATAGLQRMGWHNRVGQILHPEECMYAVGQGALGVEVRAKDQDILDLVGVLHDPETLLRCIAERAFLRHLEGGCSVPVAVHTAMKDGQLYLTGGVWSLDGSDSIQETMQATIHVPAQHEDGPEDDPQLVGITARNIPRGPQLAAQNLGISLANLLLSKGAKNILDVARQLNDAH
Description: Compound was evaluated for the inhibition of human HMBS at 100uM

With CCCn1c(NC(=O)c2ccc3ccccc3n2)nc2ccccc21 the inhibition [1] was “inactive” and the inhibition [2] was “inactive”.
For COc1ccc(CCN2CCC(NCc3cccc(N(C)C)c3)CC2)cc1, the inhibition [1] was “inactive” and the inhibition [2] was “inactive”.
In the case of Cc1[nH]c2ccccc2c1C(c1cccs1)N1CCN(C)CC1 (stereo unspecified), the inhibition [1] is reported as “inactive” and the inhibition [2] is reported as “inactive”.
NS(=O)(=O)c1cncc(-c2ccc3nccc(-c4cn[nH]c4)c3n2)c1 was tested, and the inhibition [1] was “inactive” and the inhibition [2] was “inactive”.
For Cc1cc(Nc2ccncc2)n2nc(C)c(-c3ccccc3Cl)c2n1, the inhibition [1] was “inactive” and the inhibition [2] was “inactive”.
For O=C([C@@H](c1ccc(Cl)cc1)c1cccnc1)N1CCN(c2ccc(C(F)(F)F)cc2)CC1, the inhibition [1] was “inactive” and the inhibition [2] was “inactive”.
In the case of O=C(c1[nH]nc2c1CCCC2)N1CCN(Cc2ccc3c(c2)OCO3)CC1, the inhibition [1] is reported as “inactive” and the inhibition [2] is reported as “inactive”.
In the case of COc1ccc(-c2onc(C(F)(F)F)c2-c2ccc(Cl)cc2)c(O)c1, the inhibition [1] is reported as “inactive” and the inhibition [2] is reported as “inactive”.
With CCn1ncc2c(NC3CCOCC3)c(CNC(=O)c3ccnn3C)c(C)nc21 the inhibition [1] was “inactive” and the inhibition [2] was “inactive”.
With Cc1ccc(S(=O)(=O)Nc2ccc(CN3CCN(C(=O)c4cccc(C#N)c4)CC3)cc2)cc1 the inhibition [1] was “inactive” and the inhibition [2] was “inactive”.
Cc1ccc2oc(-c3cc(NC(=O)Cc4ccccc4)ccc3Cl)nc2c1 was tested, and the inhibition [1] was “inactive” and the inhibition [2] was “inactive”.
With Cc1c[nH]c(CCNC(=O)c2cc(-c3ccc(Cl)cc3)cs2)n1 the inhibition [1] was “inactive” and the inhibition [2] was “inactive”.
For c1ccc(Oc2ccc(-c3cc(N4CCNCC4)[nH]n3)cc2)cc1, the inhibition [1] was “inactive” and the inhibition [2] was “inactive”.
In the case of Clc1ccc(-n2cc(COc3ccnc4ccccc34)nn2)cc1, the inhibition [1] is reported as “inactive” and the inhibition [2] is reported as “inactive”.
With CC(C)(C)[C@H]1CC[C@H](CC2=C(O)C(=O)c3ccccc3C2=O)CC1 the inhibition [1] was “inactive” and the inhibition [2] was “inactive”.
In the case of CC(C)(C)c1cc(C(=O)Nc2cccnc2)cc(C(=O)Nc2cccnc2)c1, the inhibition [1] is reported as “inactive” and the inhibition [2] is reported as “inactive”.
In the case of Cc1cc(NC(=O)c2ccc(S(=O)(=O)N(Cc3ccccc3)C(C)C)cc2)no1, the inhibition [1] is reported as “inactive” and the inhibition [2] is reported as “inactive”.
For CCc1nc2ccc(C(=O)NCc3ccc4c(c3)OCO4)cn2c1N(C)Cc1cccs1, the inhibition [1] was “inactive” and the inhibition [2] was “inactive”.
In the case of COc1cccc(OCC(=O)c2ccc(Br)cc2)c1, the inhibition [1] is reported as “inactive” and the inhibition [2] is reported as “inactive”.
With CC1(C)Cc2c(c(N3CCOCC3)nc3snc(Br)c23)CO1 the inhibition [1] was “inactive” and the inhibition [2] was “inactive”.
In the case of Cc1nn(C)cc1C(C)Nc1nncc(-c2ccc(C(F)(F)F)cc2)n1 (stereo unspecified), the inhibition [1] is reported as “inactive” and the inhibition [2] is reported as “inactive”.
In the case of Cc1noc(C)c1C(=O)N1CCCC(c2[nH]c3c(C)cccc3c2-c2ccncc2)C1 (stereo unspecified), the inhibition [1] is reported as “inactive” and the inhibition [2] is reported as “inactive”.
For Cc1cc(Nc2ccc(C(F)(F)F)cc2)n2ccnc2n1, the inhibition [1] was “inactive” and the inhibition [2] was “inactive”.
In the case of COc1cc(C2=NCCN2)ccc1-c1cn(-c2cccc(C3=NCCN3)c2)nn1, the inhibition [1] is reported as “inactive” and the inhibition [2] is reported as “inactive”.
C[C@@H]1[C@H](O)[C@@H](C)/C=C/C=C/C=C/C=C/C=C/C=C/C=C/[C@H](O[C@@H]2O[C@H](C)[C@@H](O)[C@H](N)[C@@H]2O)C[C@@H]2O[C@](O)(C[C@@H](O)C[C@@H](O)[C@H](O)CC[C@@H](O)C[C@@H](O)CC(=O)O[C@H]1C)C[C@H](O)[C@H]2C(=O)O was tested, and the inhibition [1] was “inactive” and the inhibition [2] was “inactive”.
In the case of O=C(NC1CC1)c1ccc(N2CCOc3ccc(Cl)cc32)s1, the inhibition [1] is reported as “inactive” and the inhibition [2] is reported as “inactive”.
In the case of CC1CCCCN1C(=O)NCCc1coc(-c2ccc(F)cc2)n1 (stereo unspecified), the inhibition [1] is reported as “inactive” and the inhibition [2] is reported as “inactive”.
For Cn1c(=O)c2c(S(C)(=O)=O)snc2n(C)c1=O, the inhibition [1] was “inactive” and the inhibition [2] was “inactive”.
With CN(C(=O)c1cc2c(-c3cncnc3)cccc2[nH]1)c1ccccc1 the inhibition [1] was “inactive” and the inhibition [2] was “inactive”.
In the case of Cc1cnc(N2CCN[C@@H](Cc3ccccc3)C2)nc1Oc1ccc(-n2ccnc2)cc1, the inhibition [1] is reported as “inactive” and the inhibition [2] is reported as “inactive”.
COc1ccc(-c2cnc3ccc(NCc4ccc(S(N)(=O)=O)cc4)nn23)cn1 was tested, and the inhibition [1] was “inactive” and the inhibition [2] was “inactive”.
With Cc1nc(-c2cccc(NCc3ccccc3)c2)[nH]c1C the inhibition [1] was “inactive” and the inhibition [2] was “inactive”.
O=C(Nc1cccc(Cl)c1)c1cnc(N2CCN(c3ccncc3)CC2)c(Cl)c1 was tested, and the inhibition [1] was “inactive” and the inhibition [2] was “inactive”.
For CC(Oc1ccccc1)C(=O)Nc1nc(-c2ccccn2)cs1 (stereo unspecified), the inhibition [1] was “inactive” and the inhibition [2] was “inactive”.
CN1CCN(S(=O)(=O)c2ccc(-c3ccc4c(Nc5ncc(Cl)cn5)ccnc4c3)cc2)CC1 was tested, and the inhibition [1] was “inactive” and the inhibition [2] was “inactive”.
In the case of Cc1cc(C(=O)Nc2cnn(Cc3ccc(Cl)cc3Cl)c2)no1, the inhibition [1] is reported as “inactive” and the inhibition [2] is reported as “inactive”.
With Clc1ccc(CN2CCN(C3=NCCN3)CC2)cc1Cl the inhibition [1] was “inactive” and the inhibition [2] was “inactive”.
With c1coc(CNc2nc(N3CCCCC3)nc3ccccc23)c1 the inhibition [1] was “inactive” and the inhibition [2] was “inactive”.
With Cc1nc2ccccn2c1C(=O)NCc1ccc(Cl)cc1 the inhibition [1] was “inactive” and the inhibition [2] was “inactive”.
For COc1ccc(C2CC(c3cccs3)=NN2C(=O)c2ccco2)cc1OC (stereo unspecified), the inhibition [1] was “inactive” and the inhibition [2] was “inactive”.
For Cc1cc(C(=O)Nc2ccc(-c3ccccc3)cc2)no1, the inhibition [1] was “inactive” and the inhibition [2] was “inactive”.
In the case of CN(C)CCNC(=O)N1CCCN(c2ncnc3cc(-c4ccccc4)sc23)CC1, the inhibition [1] is reported as “inactive” and the inhibition [2] is reported as “inactive”.
In the case of Cc1cc(Cl)ccc1NC(=O)CCc1ccc(S(=O)(=O)NCC(C)C)cc1, the inhibition [1] is reported as “inactive” and the inhibition [2] is reported as “inactive”.
CCOc1ccc(OCC(=O)Nc2cc(C)cc(C)c2)cc1 was tested, and the inhibition [1] was “inactive” and the inhibition [2] was “inactive”.
For CN(C)c1cc(NC(=O)Nc2ccccc2)c2ccccc2n1, the inhibition [1] was “inactive” and the inhibition [2] was “inactive”.
For C[C@H](C(N)=O)N1CCCC[C@@H]1c1ccc(OCc2cccc(F)c2)cc1, the inhibition [1] was “inactive” and the inhibition [2] was “inactive”.
For O=C(Nc1nc(-c2ccccn2)cs1)C1CC1c1ccccc1F (stereo unspecified), the inhibition [1] was “inactive” and the inhibition [2] was “inactive”.
With CC1(C)OB(O)c2ccc(C3=NOC(c4cc(Cl)c(F)c(Cl)c4)(C(F)(F)F)C3)cc21 (stereo unspecified) the inhibition [1] was “inactive” and the inhibition [2] was “inactive”.
For Brc1cncc(-c2cc(NCCCn3ccnc3)nc(-c3ccccc3)n2)c1, the inhibition [1] was “inactive” and the inhibition [2] was “inactive”.
In the case of O=C1O[C@@H](CO)CN1c1cc(F)c(C2=CCN(Cc3ccccc3)CC2)c(F)c1, the inhibition [1] is reported as “inactive” and the inhibition [2] is reported as “inactive”.
For CCOc1ccc(-c2nc(NC(=O)CS(=O)(=O)c3ccccc3)sc2C)cc1, the inhibition [1] was “inactive” and the inhibition [2] was “inactive”.
For Cc1nn2c(O)c3c(nc2c1-c1ccc(F)cc1)CCCC3, the inhibition [1] was “inactive” and the inhibition [2] was “inactive”.
For Cc1cccc(-c2nc(Nc3ccncn3)c3sccc3n2)n1, the inhibition [1] was “inactive” and the inhibition [2] was “inactive”.
